Data as given in patent US20020137731A1, “Combination of radiation and vitamin D3 analogs for the treatment of cancer” (priority 2000, published 2002).
“And” between values parts separate entries of the source, which are not always exact repeats. Equal entries are not always repeated. Where two headings read alike, the source gives them in different places.

Assays:
MCF-7 cells [1] = experiment: TUNEL assay of DNA fragmentation (apoptotic cell death); format: cell-based, human; conditions: for DNA fragmentation indicative of apoptotic cell death: agent alone
From the text: The method of Gavrielli et al. (1992) was utilized as an independent assessment of apoptotic cell death in combined cytospins containing both adherent and non-adherent cells. The cells were fixed and the fragmented DNA in cells undergoing apoptosis was detected using the In Situ Cell Death detection Kit (Boehringer-Manheim). In this assay, the fragmented DNA in individual cells was end labeled using fluorescein-dUTP at strand breaks by the enzyme terminal transferase. The slides were then washed, mounted in Vectashield and photographed using a Nikon fluorescent microscope. For quantitation, fluorescent cells were scored positive for DNA fragmentation.

MCF-7 cells [2] = experiment: Cell morphology (Wright-Giemsa stain, light microscopy); format: cell-based, human; conditions: for apoptotic cell morphology (dark and shrunken cells): 72 h after exposure; for apoptotic cell morphology: agent alone
From the text: Seventy-two hours after adriamycin or irradiation exposure, cells were washed and cytocentrifuged onto microscopic slides. The cells were stained Wright-Giesma stain and photographed under a Nikon light microscope.

MCF-7 cells [3] = experiment: Clonogenic analysis (colony forming assay) with statistical model of additivity; format: cell-based, human; conditions: for Predicted Response Under Additivity (Surviving Fraction): statistical model of additivity
Method: (§1) All cell lines were grown from frozen stocks in basal RPMI 1640 medium supplemented with 10% fetal calf serum, 2 mM L-glutamine, penicillin/streptomycin at 37° C. under a humidified, 5% CO2 atmosphere. All studies were conducted using approximately 10^4 cells/cm^2 at day 0 with the use of time-equivalent and concentration-equivalent controls. The results shown are averages of two to three studies.
MCF-7 cells were treated with ILX 23-7553 (200 nM), adriamycin or radiation alone and with ILX 23-7553 preceding various doses of adriamycin or radiation. For analysis of additivity, MCF-7 cells were treated with various doses of ILX 23-7553 (0-200 nM) in combination with a single dose of either adriamycin (20 nM) or irradiation (2.5 Gy). Cells were trypsinized immediately following adriamycin or radiation under sterile conditions and plated in triplicate in 6 well cell culture plates at approximately 1000 cells for each condition. After 7-10 days, the cells were fixed with 100% methanol, air-dried for 1-2 hr and stained with […] crystal violet. Groups of 50 or more cells were counted as colonies.
The predicted responses for the colony forming assay were determined using the following model: y=exp(B0+B1x1+B2x2) where y is the predicted response, x1 is either dose of irradiation ([…]) or adriarnycin (nM), x2 is the dose of ILX 23-7553 (nM), B0 is an unknown parameter associated with the intercept, B1 is an unknown parameter associated with the slope of x1 and B2 is an unknown parameter associated with the slope of x2. Parameter estimates were found using a generalized least squares criterion for nonlinear models. A constant variance was assumed across the dose range of all four compounds. The Gauss-Newton iterative algorithm was used in PROC NLIN in SAS (version 6.12) to find parameter estimates. The compare the observed response at each combination point to that predicted under the hypotheses of additivity, a prediction interval was used following Gennings et al. (1997). An overall test for additivity (Radford et al., 1994) was based on testing they hypothesis that the mean response under the hypothesis of additivity is the true mean response. The estimated responses under the hypothesis of additivity were provided by the additivity model. The estimated responses for the true means were provided by the sample means at each mixture group.

MCF-7 cells [4] = experiment: Viable cell number by trypan blue exclusion; format: cell-based, human
Method: as §1
The response of cells treated with adriamycin (1 μM) for 2 hr and irradiation (10 Gy) was assessed 72 hr after treatment by trypan blue exclusion. The response of cells treated with ILX 23-7553 (200 nM) for 72 hr was evaluated 72 hr after removal of ILX 23-7553. To evaluate the combined effects of adriamycin or irradiation with ILX 23-7553 (200 nM), cells were treated with ILX 23-7553 for 72 hr prior to adriamycin (1 μM) or irradiation (10 Gy) and allowed to grow for an additional 72 hr. Cells were harvested using trypsin, stained with 0.4% trypan blue and trypan blue negative cells were counted under phase contrast microscopy.

MCF-7 cells [5] = conditions: previous work, literature; cited from earlier work
MCF-7 breast tumor cells = conditions: Sundaram and Gewirtz, 1999; Sundaram et al., 2000; cited from earlier work
[6] = ILX 23-7553 pretreatment followed by radiation

Compound: C=C1/C(=C\C=C2/CCC[C@]3(C)C([C@H](C)CC#CC(C)(C)O)=CC[C@@H]23)C[C@@H](O)C[C@@H]1O [ILX 23-7553]
- percent TUNEL-positive cells (cells with DNA fragmentation) (MCF-7 cells [1]; ILX 23-7553 pretreatment followed by adriamycin): 15% and 14%
- percent TUNEL-positive cells (cells with DNA fragmentation) (MCF-7 cells [1]; ILX 23-7553 pretreatment followed by irradiation): 7%
- DNA fragmentation indicative of apoptotic cell death (MCF-7 cells [1]): not induced
- apoptotic cell morphology (dark and shrunken cells) (MCF-7 cells [2]; ILX 23-7553 in combination with adriamycin): observed
- apoptotic cell morphology (dark and shrunken cells) (MCF-7 cells [2]; ILX 23-7553 in combination with irradiation): observed
- apoptotic cell morphology (MCF-7 cells [2]): did not produce cells with this apoptotic morphology
- fold decrease in adriamycin dose required to reduce clonogenic survival by 50% (MCF-7 cells [3]; 200 nM ILX 23-7553 pretreatment for 72 h vs adriamycin alone): ~2.5 fold and 2 fold
- fold reduction in irradiation dose required to reduce clonogenic survival by 50% (MCF-7 cells [3]; 200 nM ILX 23-7553 pretreatment for 72 h vs irradiation alone): 4 fold
- Observed Mean Response (Surviving Fraction) (MCF-7 cells [3]; Adr 1 nM, ILX 200 nM): 0.67
- Predicted Response Under Additivity (Surviving Fraction) (MCF-7 cells [3]; Adr 1 nM, ILX 200 nM): 0.53
- Observed Mean Response (Surviving Fraction) (MCF-7 cells [3]; Adr 5 nM, ILX 200 nM): 0.58
- Predicted Response Under Additivity (Surviving Fraction) (MCF-7 cells [3]; Adr 5 nM, ILX 200 nM): 0.51
- Observed Mean Response (Surviving Fraction) (MCF-7 cells [3]; Adr 10 nM, ILX 200 nM): 0.52
- Predicted Response Under Additivity (Surviving Fraction) (MCF-7 cells [3]; Adr 10 nM, ILX 200 nM): 0.49
- Observed Mean Response (Surviving Fraction) (MCF-7 cells [3]; Adr 20 nM, ILX 50 nM): 0.58
- Predicted Response Under Additivity (Surviving Fraction) (MCF-7 cells [3]; Adr 20 nM, ILX 50 nM): 0.63
- Observed Mean Response (Surviving Fraction) (MCF-7 cells [3]; Adr 20 nM, ILX 100 nM): 0.50
- Predicted Response Under Additivity (Surviving Fraction) (MCF-7 cells [3]; Adr 20 nM, ILX 100 nM): 0.56
- Observed Mean Response (Surviving Fraction) (MCF-7 cells [3]; Adr 20 nM, ILX 200 nM): 0.46
- Predicted Response Under Additivity (Surviving Fraction) (MCF-7 cells [3]; Adr 20 nM, ILX 200 nM): 0.44
- Observed Mean Response (Surviving Fraction) (MCF-7 cells [3]; Adr 100 nM, ILX 200 nM): 0.24
- Predicted Response Under Additivity (Surviving Fraction) (MCF-7 cells [3]; Adr 100 nM, ILX 200 nM): 0.20
- Observed Mean Response (Surviving Fraction) (MCF-7 cells [3]; IR 0.5 Gy, ILX 200 nM): 0.34
- Predicted Response Under Additivity (Surviving Fraction) (MCF-7 cells [3]; IR 0.5 Gy, ILX 200 nM): 0.51
- Observed Mean Response (Surviving Fraction) (MCF-7 cells [3]; IR 1.0 Gy, ILX 200 nM): 0.27
- Predicted Response Under Additivity (Surviving Fraction) (MCF-7 cells [3]; IR 1.0 Gy, ILX 200 nM): 0.41
- Observed Mean Response (Surviving Fraction) (MCF-7 cells [3]; IR 2.5 Gy, ILX 50 nM): 0.23
- Predicted Response Under Additivity (Surviving Fraction) (MCF-7 cells [3]; IR 2.5 Gy, ILX 50 nM): 0.29
- Observed Mean Response (Surviving Fraction) (MCF-7 cells [3]; IR 2.5 Gy, ILX 200 nM): 0.20
- Predicted Response Under Additivity (Surviving Fraction) (MCF-7 cells [3]; IR 2.5 Gy, ILX 200 nM): 0.22
- Observed Mean Response (Surviving Fraction) (MCF-7 cells [3]; IR 5.0 Gy, ILX 200 nM): 0.13
- Predicted Response Under Additivity (Surviving Fraction) (MCF-7 cells [3]; IR 5.0 Gy, ILX 200 nM): 0.08
- dose of irradiation required to produce a 50% decrease in clonogenic survival (MCF-7 cells [3]; after 200 nM ILX 23-7553 pretreatment (irradiation alone: 1 Gy)): 0.25 Gy
- type of interaction between ILX 23-7553 and irradiation (additive vs synergistic) (MCF-7 cells [3]; colony forming assays, observed vs predicted surviving fractions, p=0.196): additively
- type of interaction between ILX 23-7553 and adriamycin (additive vs synergistic) (MCF-7 cells [3]; colony forming assays, observed vs predicted surviving fractions, p=0.461): additively
- cytotoxicity at 0.2 µM (MCF-7 cells [4]; Homo sapiens, MCF7, 72 h, ILX 23-7553 200 nM for 72 h alone, counted 72 h after removal, vs untreated controls, read-out: decrease in viable cell number): 60%
- cytotoxicity at 0.2 µM (MCF-7 cells [4]; Homo sapiens, MCF7, ILX 23-7553 200 nM 72 h pretreatment followed by 10 Gy ionizing radiation, counted 72 h after, read-out: decrease in viable cell number): 93%
- cytotoxicity at 0.2 µM (MCF-7 cells [4]; Homo sapiens, MCF7, ILX 23-7553 200 nM 72 h pretreatment followed by adriamycin 1 μM, counted 72 h after, read-out: decrease in viable cell number): 97%
- decrease in viable cell numbers as compared to ILX 23-7553 alone (MCF-7 cells [4]; [6]): 66%
- decrease in viable cell numbers as compared to radiation alone (MCF-7 cells [4]; [6]): 24%

Compound: COc1cccc2c1C(=O)c1c(O)c3c(c(O)c1C2=O)C[C@@](O)(C(=O)CO)C[C@@H]3O[C@H]1C[C@H](N)[C@H](O)[C@H](C)O1 [adriamycin, reference compound]
- DNA fragmentation indicative of apoptotic cell death (MCF-7 cells [1]): not induced
- apoptotic cell morphology (MCF-7 cells [2]): did not produce cells with this apoptotic morphology
- cytotoxicity at 1 µM (MCF-7 cells [4]; Homo sapiens, MCF7, adriamycin 1 μM (2 hr acute exposure) alone, counted 72 h after, vs untreated controls, read-out: decrease in viable cell number): 74%
- induction of apoptotic cell death (MCF-7 cells [5]): neither adriamycin nor irradiation induces apoptotic cell death

Compound: C=C1/C(=C\C=C2/CCC[C@]3(C)[C@@H]([C@H](C)/C=C/C=C/C(O)(CC)CC)CC[C@@H]23)C[C@@H](O)C[C@@H]1O [EB 1089]
- effect on the response of MCF-7 breast tumor cells to adriamycin and irradiation (MCF-7 breast tumor cells): enhances
